Test results as given in patent US12304912B2, “Fused bicyclic RAF inhibitors and methods for use thereof” (Jazz Pharmaceuticals Ireland Limited, priority 2020, dated 2025).
In brackets after ≈: the same amount, converted by molar mass. Where a name gives a salt, the structure may show the parent alone. Read-outs that look alike come from different tables or passages of the source.

Tests used:
[1] = Solubility (Sol), medium not stated; type: physicochemical; conditions: cells not marked (FESSIF)
HCT-116 cells = assay: HCT-116 CellTiter-Glo 3D cell proliferation assay; type: cell-based; conditions: Homo sapiens, HCT-116; HCT116 cells, 3D proliferation; read-out: 3D HCT116 pGI50 (converted)
Protocol: HCT-116 CellTiter-Glo 3D Cell Proliferation Assay
The human HCT-116 colorectal carcinoma cell line (ATCC CCL-247) endogenously expresses the KRAS^G13D mutation, which leads to enhanced survival and proliferative signaling. […] On the first day, HCT-116 cells were harvested, resuspended in growth medium (McCoys5A with Glutamax (Life Technologies 36600021) with 10% heat-inactivated fetal bovine serum (Sigma F9665)), and counted. Cells were plated in 100 μl per well in each well of a Corning 7007 96-well clear round bottom Ultra-Low Attachment plate (VWR 444-1020) to a final density of 1000 cells per well. Cells were seeded for pre- and post-treatment readouts. The cells were then incubated at 37° C. and 5% CO2 for 3 days (72 hours) to allow spheroid formation. After 72 hours, the plate seeded for a pre-treatment read was removed from the incubator to allow equilibration to room temperature for 30 minutes, before CellTitre-Glo® reagent was added to each well. The plates were incubated at room temperature for 5 minutes shaking at 300 rpm, followed by an incubation of 25 minutes on the benchtop before being read on the Envision reader (Perkin Elmer) as described below. On the same day, the cells plated for the post-treatment readout were dosed with compounds to produce a 9-point dose response, where the top concentration was 15 μM and following concentrations were at 1/2 log dilution intervals. These cells were subsequently incubated at 37° C. and 5% CO2 for another 4 days (96 hours). After 4 days, the plate was removed from the incubator to allow equilibration to room temperature for 30 minutes and treated with CellTitre Glo® reagent as stated above. […] The CellTitre Glo® reagent lyses the cells and contains luciferin and a luciferase (Ultra-Glo™ Recombinant Luciferase), which in the presence of ATP and oxygen can produce bioluminescence from luciferin. Therefore, plates were read on an EnVision reader (Perkin Elmer) and luminescence signals were recorded. Cell proliferation was determined on 4 days after dosing relative to the pre-treatment read. All data were analyzed using the Dotmatics or GraphPad Prism software packages. Inhibition of proliferation was assessed by determination of the GI50 value, which was defined as the concentration of compound required to decrease the level of cell proliferation by 50% when compared to DMSO control.

FeSSIF solubility assay = type: physicochemical; conditions: pH 5 acetate buffer, 37° C.; for solubility thermodynamic at 24 h: fed state simulated intestinal fluid (FeSSIF), thermodynamic from solid
Protocol: FeSSIF Solubility Assay 1 mL of fed state simulated intestinal fluid (FeSSIF), prepared using FaSSIF/FeSSIF/FaSSGF powder (Biorelevant.com) and pH 5 acetate buffer, was added to 1.0 mg of compound and then incubated for 24 h (Bioshake iQ, 650 rpm, 37° C.). Following filtration under positive pressure, the concentration of compound in solution was assessed by LC-UV in comparison to the response for a calibration standard of known concentration (250 μM). FeSSIF solubility results are described in Tables 1-2.

Structure (SMILES)	Sol [1]	GI50 (HCT-116 cells)	solubility thermodynamic at 24 h (FeSSIF solubility assay; read-out: FESSIF Sol)	further results
O=C1CCc2c(Oc3ccc4c(c3)CC(c3nc5cc(C(F)(F)F)ncc5[nH]3)CO4)ccnc2N1 (racemic) [Compound 32]	<1.2 mg/L			
O=C(Nc1cc(Oc2ccc3c(c2)CC(c2nc(-c4ccccc4)c[nH]2)CO3)ccn1)C1CC1 (racemic) [Compound 136]		47.9 nM	17.1 µg/mL (≈ 37.8 µM)	
O=C1CCc2c(Oc3ccc4c(c3)CC(c3nc(-c5ccnc(C(F)(F)F)c5)c[nH]3)CO4)ccnc2N1 (stereo not drawn) [Compound 8, 5-[3-[4-[2-(trifluoromethyl)-4-pyridyl]-1H-imidazol-2-yl]chroman-6-yl]oxy-3,4-dihydro-1H-1,8-naphthyridin-2-one]		138 nM		solubility thermodynamic at 24 h (FeSSIF solubility assay; read-out: Sol (FESSIF)): 18.5 µg/mL (≈ 36.5 µM); FESSIF Sol (FeSSIF solubility assay; 24 h): 18.5 mg/L
O=C1CCc2c(Oc3ccc4c(c3)CC(c3nc(-c5cccc(C(F)(F)F)c5)c[nH]3)CO4)ccnc2N1 (stereo not drawn) [Compound 12, 5-[3-[4-[3-(trifluoromethyl)phenyl]-1H-imidazol-2-yl]chroman-6-yl]oxy-3,4-dihydro-1H-1,8-naphthyridin-2-one]	<1.3 mg/L			
COc1cc(-c2c[nH]c(C3COc4ccc(Oc5ccnc6c5CCC(=O)N6)cc4C3)n2)ccn1 (stereo not drawn) [Compound 19, 5-[3-[4-(2-methoxy-4-pyridyl)-1H-imidazol-2-yl]chroman-6-yl]oxy-3,4-dihydro-1H-1,8-naphthyridin-2-one]				solubility thermodynamic at 24 h (FeSSIF solubility assay; read-out: Sol (FESSIF)): 19.6 µg/mL (≈ 41.7 µM)
O=C1CCc2c(Oc3ccc4c(c3)CC(c3nc5cc(C(F)(F)F)ccc5[nH]3)CO4)ccnc2N1 (stereo not drawn) [Compound 22, 5-[3-[6-(trifluoromethyl)-1H-benzimidazol-2-yl]chroman-6-yl]oxy-3,4-dihydro-1H-1,8-naphthyridin-2-one]	<1.2 mg/L			
O=C1CCc2c(Oc3ccc4c(c3)CC(c3nc5cc(F)c(F)cc5[nH]3)CO4)ccnc2N1 (stereo not drawn) [Compound 23]	<1.1 mg/L			
N#Cc1ccc2[nH]c(C3COc4ccc(Oc5ccnc6c5CCC(=O)N6)cc4C3)nc2c1 (stereo not drawn) [Compound 24]	<1.1 mg/L			
O=C1CCc2c(Oc3ccc4c(c3)CC(c3nc5cc(Cl)ccc5[nH]3)CO4)ccnc2N1 (stereo not drawn) [Compound 25]				solubility thermodynamic at 24 h (FeSSIF solubility assay; read-out: Sol (FESSIF)): 1.8 µg/mL (≈ 4.03 µM)
CN(C)c1ccc2[nH]c(C3COc4ccc(Oc5ccnc6c5CCC(=O)N6)cc4C3)nc2c1 (stereo not drawn) [Compound 26]	<1.1 mg/L			
Cc1cc2nc(C3COc4ccc(Oc5ccnc6c5CCC(=O)N6)cc4C3)[nH]c2cc1C (stereo not drawn) [Compound 29]	<1.1 mg/L			
O=C1CCc2c(Oc3ccc4c(c3)CN(c3nc(-c5ccccc5)n[nH]3)CC4)ccnc2N1 [Compound 44, 5-[[2-(3-phenyl-1H-1,2,4-triazol-5-yl)-3,4-dihydro-1H-isoquinolin-7-yl]oxy]-3,4-dihydro-1H-1,8-naphthyridin-2-one hydrochloride]	<1.2 mg/L			
O=C(Nc1cc(Oc2ccc3c(c2)CC(c2nc(-c4ccccc4)c[nH]2)CO3)ccn1)C1CC1 (stereo not drawn) [Compound 45, N-[4-[3-(4-phenyl-1H-imidazol-2-yl)chroman-6-yl]oxy-2-pyridyl]cyclopropanecarboxamide]	<1.2 mg/L			
O=C1CCc2c(Oc3ccc4c(c3)CN(C(=O)Nc3ccc(C(F)(F)F)cc3)CC4)ccnc2N1 [Compound 47]				solubility thermodynamic at 24 h (FeSSIF solubility assay; read-out: Sol (FESSIF)): 27.5 µg/mL (≈ 57 µM)
O=C1CCc2c(Oc3ccc4c(c3)CN(C(=O)Nc3cccc(C(F)(F)F)c3)CC4)ccnc2N1 [Compound 50]	<1.2 mg/L			
O=C1CCc2c(Oc3ccc4c(c3)CC(c3nc(-c5ccnc(C(F)F)c5)c[nH]3)CO4)ccnc2N1 (stereo not drawn) [Compound 101, 5-[3-[4-[2-(difluoromethyl)-4-pyridyl]-1H-imidazol-2-yl]chroman-6-yl]oxy-3,4-dihydro-1H-1,8-naphthyridin-2-one]		85.1 nM	5.7 µg/mL (≈ 11.6 µM)	

Structure (SMILES)	Sol [1]	GI50 (HCT-116 cells)	solubility thermodynamic at 24 h (FeSSIF solubility assay; read-out: FESSIF Sol)	further results
O=C1CCc2c(Oc3ccc4c(c3)CC(c3nc(-c5cncc(C(F)(F)F)c5)c[nH]3)CO4)ccnc2N1 (stereo not drawn) [Compound 103, 5-[3-[4-[5-(trifluoromethyl)-3-pyridyl]-1H-imidazol-2-yl]chroman-6-yl]oxy-3,4-dihydro-1H-1,8-naphthyridin-2-one]		288 nM	5.2 µg/mL (≈ 10.2 µM)	
COc1cc(-c2c[nH]c(C3COc4ccc(Oc5ccnc6c5CCC(=O)N6)cc4C3)n2)ccn1 (stereo not drawn) [Compound 104]		447 nM		
Cn1nc(C(F)(F)F)cc1-c1c[nH]c(C2COc3ccc(Oc4ccnc5c4CCC(=O)N5)cc3C2)n1 (stereo not drawn) [Compound 107, 5-[3-[4-[2-methyl-5-(trifluoromethyl)pyrazol-3-yl]-1H-imidazol-2-yl]chroman-6-yl]oxy-3,4-dihydro-1H-1,8-naphthyridin-2-one]		229 nM		
Cc1cc(-c2c[nH]c(C3COc4ccc(Oc5ccnc6c5CCC(=O)N6)cc4C3)n2)n(C(C)C)n1 (stereo not drawn) [Compound 112, 5-[3-[4-(2-isopropyl-5-methyl-pyrazol-3-yl)-1H-imidazol-2-yl]chroman-6-yl]oxy-3,4-dihydro-1H-1,8-naphthyridin-2-one]			51.1 µg/mL (≈ 105 µM)	
CCc1cc(-c2c[nH]c(C3COc4ccc(Oc5ccnc6c5CCC(=O)N6)cc4C3)n2)n(C2CC2)n1 (stereo not drawn) [Compound 113, 5-[3-[4-(2-cyclopropyl-5-ethyl-pyrazol-3-yl)-1H-imidazol-2-yl]chroman-6-yl]oxy-3,4-dihydro-1H-1,8-naphthyridin-2-one]			140 µg/mL (≈ 281 µM)	
Cc1cc(-c2c[nH]c(C3COc4ccc(Oc5ccnc6c5CCC(=O)N6)cc4C3)n2)n(C2CC2)n1 (stereo not drawn) [Compound 114, 5-[3-[4-(2-cyclopropyl-5-methyl-pyrazol-3-yl)-1H-imidazol-2-yl]chroman-6-yl]oxy-3,4-dihydro-1H-1,8-naphthyridin-2-one]			497 µg/mL (≈ 1030 µM)	
CCc1cc(-c2c[nH]c(C3COc4ccc(Oc5ccnc6c5CCC(=O)N6)cc4C3)n2)ccn1 (stereo not drawn) [Compound 118, 5-[3-[4-(2-ethyl-4-pyridyl)-1H-imidazol-2-yl]chroman-6-yl]oxy-3,4-dihydro-1H-1,8-naphthyridin-2-one]		398 nM		
Cc1cc(-c2c[nH]c(C3COc4ccc(Oc5ccnc6c5CCC(=O)N6)cc4C3)n2)n(CC(F)(F)F)n1 (stereo not drawn) [Compound 126, 5-[3-[4-[5-methyl-2-(2,2,2-trifluoroethyl)pyrazol-3-yl]-1H-imidazol-2-yl]chroman-6-yl]oxy-3,4-dihydro-1H-1,8-naphthyridin-2-one]			< 1.3 µg/mL	
O=C1CCc2c(Oc3ccc4c(c3)CC(c3nc(-c5ccc(C(F)(F)F)nc5)c[nH]3)CO4)ccnc2N1 (stereo not drawn) [Compound 127, 5-[3-[4-[6-(trifluoromethyl)-3-pyridyl]-1H-imidazol-2-yl]chroman-6-yl]oxy-3,4-dihydro-1H-1,8-naphthyridin-2-one]			6 µg/mL (≈ 11.8 µM)	
O=C1CCc2c(Oc3ccc4c(c3)CC(c3nc(-c5cccnc5C(F)(F)F)c[nH]3)CO4)ccnc2N1 (stereo not drawn) [Compound 128, 5-[3-[4-[2-(trifluoromethyl)-3-pyridyl]-1H-imidazol-2-yl]chroman-6-yl]oxy-3,4-dihydro-1H-1,8-naphthyridin-2-one]			1.6 µg/mL (≈ 3.15 µM)	
Cn1ncc2ccc(-c3c[nH]c(C4COc5ccc(Oc6ccnc7c6CCC(=O)N7)cc5C4)n3)cc21 (stereo not drawn) [Compound 130, 5-[3-[4-(1-methylindazol-6-yl)-1H-imidazol-2-yl]chroman-6-yl]oxy-3,4-dihydro-1H-1,8-naphthyridin-2-one]		617 nM		
O=C1CCc2c(Oc3ccc4c(c3)CC(c3nc5ccncc5[nH]3)CO4)ccnc2N1 (stereo not drawn) [Compound 134, 5-[3-(3H-imidazo[4,5-c]pyridin-2-yl)chroman-6-yl]oxy-3,4-dihydro-1H-1,8-naphthyridin-2-one]		15100 nM		
O=C(Nc1cc(Oc2ccc3c(c2)CC(c2nc(-c4ccccc4)c[nH]2)CO3)ccn1)C1CC(F)(F)C1 (stereo not drawn) [Compound 139]			107 µg/mL (≈ 212 µM)	
c1ccc(-c2c[nH]c(C3COc4ccc(Oc5ccnc(Nc6ccccn6)c5)cc4C3)n2)cc1 (stereo not drawn) [Compound 140, 4-[3-(4-phenyl-1H-imidazol-2-yl)chroman-6-yl]oxy-N-(2-pyridyl)pyridin-2-amine]		1320 nM		
O=C(CN1CC[C@@H](O)C1)Nc1cc(Oc2ccc3c(c2)CC(c2nc(-c4ccccc4)c[nH]2)CO3)ccn1 (stereo partly drawn) [Compound 145]		479 nM		
